Experimental data as given in US6635436B2, “Methods for the screening of non-recombinant cell lines capable of expressing a single PDE4 isoenzyme and for the screening of PDE4 inhibitors” (Warner-Lambert Company, priority 1999, dated 2003).

Legend:
PDE4 = assay: Chromatographic resolution and assay of PDE activities in control and PMA-treated cells; type: cell-based, human; details: HL-60 cells treated with 1 μM PMA for 72 hours; control cells 0.14
Description: (§1) All the cell lines used in this study were obtained from the European Collection of Cell Culture (ECACC). U-937, HT-29, HL-60, Jurkat, MOLT-4, HK-293, CACO2 were grown in RPMI 1640 medium supplemented with 10% (v/v) heat-inactivated calf serum at 37° C. in an humidified atmosphere of 95% air-5% CO2. […] Cells in suspension were seeded at 10^6 cells/ml and adherent ones were used when confluent. After the required incubation times, 10^6 cells were used for mRNA extraction and 2.5×10^8 for proteins extraction.
The adherent cells were disrupted by trypsinisation and along with the non-adherent cells were washed carefully at least twice with sterile PBS and counted. […]
Phosphodiesterase activities were assayed using a modification of the method described by Smith et al. (1993) utilizing the observation that 5′-nucleotides bind very strongly to alumina while the cyclic nucleotides are readily eluted at neutral or slightly alkaline pH. […] The separated [^3H]cAMP was back-corrected for recovery using the separated and non-separated ^14C values and expressed as a fraction of the total [^3H]cAMP to give the amount of substrate hydrolyzed.
These studies were conducted originally to set up PDE4 subtype cellular assays, for this reason the cell lines that were expressing either a single or majority of a single subtype after the different treatments, were analysed for their phosphodiesterase activities. […]

PDE 4D3 = assay: Semi-quantitative RT-PCR of PDE4D3 expression in treated human cell lines; type: cell-based; details: control normalized to 1
Description: (§2) RNA was purified using Tripure™ Isolation Reagent, a single-step liquid phase separation issued from the total RNA isolation method developed by Chomczynski and Sacchi (1987). Washed and pelleted cells were resuspended at a concentration of 1×10^6 cells/ml Tripure and the total RNA extracted was quantified spectrophotometrically. RT-PCR was carried out using the commercial PCR ELISA Dig Labelling Kit. First strand cDNA was generated from 1 μg of total RNA per sample using random hexamers to prime the reverse transcription (First Strand cDNA Synthesis Kit for RT-PCR) and was directly amplified by PCR following the addition of specific primer pairs. Oligonucleotide primers were: PDE4A, 5′-[…]-3′ (SEQ ID N^o1) and 5′-[…]-3′ (SEQ ID N^o2), defining a 439-bp product; PDE4B, 5′-[…]-3′ and 5′-[…]-3′, defining a 327-bp product; PDE4C, 5′-[…]-3′ and 5′-[…]-3′ defining a 331-bp product; PDE4D, 5′-[…]-3′ and 5′-[…]-3′, defining a 339-bp product. The 5′-biotin-labelled capture probes used for the detection of PCR fragments were: 5′-[…]-3′ for PDE4A, 5′-[…]-3′ for PDE4B, 5′-[…]-3′ for PDE4C, 5′-[…]-3′ for PDE4D. Briefly, this PCR ELISA allows the specific detection of PCR products in a semi-quantitative microtiter plate format. The PCR products are labelled with digoxigenin during the amplification process (dig labelling). The labelled PCR products are analyzed by solution hybridization to a specific capture probe that is complementary to the inner part of the amplification product (dig detection). This capture probe is labelled with biotin to allow immobilization of the hybrid to a streptavidin coated microtiterplate surface. Unspecific amplification products will not hybridized to this capture probe and thus will be removed during the following washing steps; The bound hybrid is detected by an anti-digoxigenin peroxidase conjugate and by use of the calorimetric substrate ABTS. In comparison with suitable standards the color signal can be used for semi-quantitative evaluation of an amplification reaction. In our experiments the PDE4 subtypes PCR fragments amplified in the control cells (cells non treated with any of the compound tested), were our standards and the optical densities found for these PCR-fragments were normalized to 1.
as §1
(§3) The control cells received 1% DMSO for 2 hours or 3 days. After treated, the cells were washed and prepared for mRNA extraction as described in the Materials and Methods section. PCR fragments were quantified by semi-quantitative PCR: The expression of the subtypes in control cells was normalized to 1 to allow expression of the data found in the treated cells as an x-fold increase or decrease expression of each subtype in comparison to the control value.
(§4) The expression of the subtypes in control cells was normalized to 1 to be able to express the data found in the treated cells as an x-fold increase or decrease expression of each subtype in comparison to the control value. The results obtained are summarised in table 2 and here again, none of the treatment used was able to induce the expression of a C subtype.

PDE4B = assay: Semi-quantitative RT-PCR of PDE4B expression in treated human cell lines; type: cell-based; details: control normalized to 1
Description: as §2, §1, §3, §4

PDE4A = assay: Semi-quantitative RT-PCR of PDE4A expression in treated human cell lines; type: cell-based; details: control normalized to 1
Description: as §2, §1, §3, §4

PDE4D = assay: Semi-quantitative RT-PCR of PDE4D expression in treated human cell lines; type: cell-based; details: control normalized to 1
Description: as §2, §1, §3, §4

## CCCCCCCCCCCCCC(=O)O[C@@H]1[C@@H](C)[C@@]2(O)[C@@H](C=C(CO)C[C@]3(O)C(=O)C(C)=C[C@@H]23)[C@@H]2C(C)(C)[C@]12OC(C)=O [PMA, phorbol myristate acetate]
PDE4
  maximum PDE4 activity: 0.9 pmol AMP formed/min/μl
PDE 4D3; CACO-2 cells
  PDE4 D3 x-fold change in expression vs control (number in brackets): −1.1 fold
PDE 4D3; HK-293 cells
  PDE4 D3 x-fold change in expression vs control (number in brackets): 1 fold
PDE 4D3; HT-29 cells
  PDE4 D3 x-fold change in expression vs control (number in brackets): 1 fold
PDE4B; HK-293 cells
  PDE4 subtype B x-fold change in expression vs control (number in brackets): 1 fold
PDE4B; HL-60 cells
  PDE4 subtype B x-fold change in expression vs control (number in brackets): −12.2 fold
PDE4B; Jurkat cells
  PDE4 subtype B x-fold change in expression vs control (number in brackets): −2 fold
PDE4B; Molt-4 cells
  PDE4 subtype B x-fold change in expression vs control (number in brackets): 1 fold
PDE4A; CACO-2 cells
  PDE4 subtype A x-fold change in expression vs control (number in brackets): 1 fold
PDE4A; HK-293 cells
  PDE4 subtype A x-fold change in expression vs control (number in brackets): 1 fold
PDE4A; HT-29 cells
  PDE4 subtype A x-fold change in expression vs control (number in brackets): 1.5 fold
PDE4A; Jurkat cells
  PDE4 subtype A x-fold change in expression vs control (number in brackets): 1 fold
PDE4A; Molt-4 cells
  PDE4 subtype A x-fold change in expression vs control (number in brackets): −1.5 fold
PDE4D; HL-60 cells
  PDE4 subtype D x-fold change in expression vs control (number in brackets): −14.5 fold
PDE4D; HT-29 cells
  PDE4 subtype D x-fold change in expression vs control (number in brackets): 1.8 fold
PDE4D; Jurkat cells
  PDE4 subtype D x-fold change in expression vs control (number in brackets): −1.9 fold
PDE4D; Molt-4 cells
  PDE4 subtype D x-fold change in expression vs control (number in brackets): 1.1 fold

## C[C@@H]1C[C@H]2[C@@H]3CCC4=CC(=O)C=C[C@]4(C)[C@@]3(F)[C@@H](O)C[C@]2(C)[C@@]1(O)C(=O)CO [Dexamethasone, dexamethasone]
PDE 4D3; CACO-2 cells
  PDE4 D3 x-fold change in expression vs control (number in brackets): 1 fold
PDE 4D3; HK-293 cells
  PDE4 D3 x-fold change in expression vs control (number in brackets): 1 fold
PDE 4D3; HL-60 cells
  PDE4 D3 x-fold change in expression vs control (number in brackets): 1 fold
PDE 4D3; HT-29 cells
  PDE4 D3 x-fold change in expression vs control (number in brackets): 1 fold
PDE4B; HK-293 cells
  PDE4 subtype B x-fold change in expression vs control (number in brackets): −1.5 fold
PDE4B; HL-60 cells
  PDE4 subtype B x-fold change in expression vs control (number in brackets): −1.2 fold
PDE4B; Jurkat cells
  PDE4 subtype B x-fold change in expression vs control (number in brackets): 1 fold
PDE4B; Molt-4 cells
  PDE4 subtype B x-fold change in expression vs control (number in brackets): 1 fold
PDE4A; CACO-2 cells
  PDE4 subtype A x-fold change in expression vs control (number in brackets): 1 fold
PDE4A; HK-293 cells
  PDE4 subtype A x-fold change in expression vs control (number in brackets): 1 fold
PDE4A; HL-60 cells
  PDE4 subtype A x-fold change in expression vs control (number in brackets): 1 fold
PDE4A; HT-29 cells
  PDE4 subtype A x-fold change in expression vs control (number in brackets): 1 fold
PDE4A; Jurkat cells
  PDE4 subtype A x-fold change in expression vs control (number in brackets): 1 fold
PDE4A; Molt-4 cells
  PDE4 subtype A x-fold change in expression vs control (number in brackets): 2 fold
PDE4A; Molt-4 cells, listed as dexamethasone
  PDE4 subtype A x-fold change in expression vs control (number in brackets): +2 fold
PDE4D; CACO-2 cells
  PDE4 subtype D x-fold change in expression vs control (number in brackets): 1 fold
PDE4D; HK-293 cells
  PDE4 subtype D x-fold change in expression vs control (number in brackets): 1 fold
PDE4D; HL-60 cells
  PDE4 subtype D x-fold change in expression vs control (number in brackets): 1 fold
PDE4D; HT-29 cells
  PDE4 subtype D x-fold change in expression vs control (number in brackets): 1 fold
PDE4D; Jurkat cells
  PDE4 subtype D x-fold change in expression vs control (number in brackets): 1 fold
PDE4D; Molt-4 cells
  PDE4 subtype D x-fold change in expression vs control (number in brackets): 1.1 fold
